Source: US12421252B2, “Spiro (isobenzofuranazetidine) compounds for the treatment of autoimmune disease” (Hoffmann-La Roche Inc., priority 2020, dated 2025)

What follows are compounds tested against T1, hTLR9 (Homo sapiens, UniProt Q9NR96) (assay: HEK293-Blue-hTLR-9 cells assay). Conditions: HEK293-Blue-hTLR9 cells, ODN2006 stimulation, 20 hrs, SEAP reporter; read-out: HEK/hTLR9 IC50.
T1 sequence (Q9NR96 26-1032): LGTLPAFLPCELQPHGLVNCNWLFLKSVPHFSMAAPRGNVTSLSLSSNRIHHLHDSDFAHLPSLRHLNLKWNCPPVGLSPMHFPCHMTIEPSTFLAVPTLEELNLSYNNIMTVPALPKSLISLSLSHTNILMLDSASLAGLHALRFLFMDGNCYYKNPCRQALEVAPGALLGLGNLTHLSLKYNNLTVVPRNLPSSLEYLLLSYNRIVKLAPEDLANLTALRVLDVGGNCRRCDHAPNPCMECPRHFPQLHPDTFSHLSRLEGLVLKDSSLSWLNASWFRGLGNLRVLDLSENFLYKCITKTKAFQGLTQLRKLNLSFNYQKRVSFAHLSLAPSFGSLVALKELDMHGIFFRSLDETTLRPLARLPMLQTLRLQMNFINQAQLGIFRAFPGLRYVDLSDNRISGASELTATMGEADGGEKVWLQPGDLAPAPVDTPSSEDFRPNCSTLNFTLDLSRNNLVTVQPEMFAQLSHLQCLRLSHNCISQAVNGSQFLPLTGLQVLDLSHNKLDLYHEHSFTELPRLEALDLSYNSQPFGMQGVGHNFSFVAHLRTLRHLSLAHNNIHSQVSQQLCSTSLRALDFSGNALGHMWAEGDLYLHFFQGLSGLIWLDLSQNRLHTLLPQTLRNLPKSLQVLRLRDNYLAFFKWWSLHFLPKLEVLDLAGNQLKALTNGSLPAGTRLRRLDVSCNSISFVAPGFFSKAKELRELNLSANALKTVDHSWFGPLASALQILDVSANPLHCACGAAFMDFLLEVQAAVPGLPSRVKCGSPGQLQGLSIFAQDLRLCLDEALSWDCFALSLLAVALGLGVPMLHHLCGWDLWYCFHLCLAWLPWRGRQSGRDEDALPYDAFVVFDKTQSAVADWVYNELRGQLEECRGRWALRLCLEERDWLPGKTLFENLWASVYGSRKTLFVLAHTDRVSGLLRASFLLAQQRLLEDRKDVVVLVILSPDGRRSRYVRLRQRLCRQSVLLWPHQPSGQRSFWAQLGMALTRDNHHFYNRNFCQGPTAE
Format: cell-based
Excerpt: HEK293-Blue-hTLR-9 cells assay: A stable HEK293-Blue-hTLR-9 cell line was purchased from InvivoGen (Cat. #: hkb-htlr9, San Diego, California, USA). These cells were originally designed for studying the stimulation of human TLR9 by monitoring the activation of NF-κB. A SEAP (secreted embryonic alkaline phosphatase) reporter gene was placed under the control of the IFN-β minimal promoter fused to five NF-κB and AP-1-binding sites. The SEAP was induced by activating NF-κB and AP-1 via stimulating HEK-Blue hTLR9 cells with TLR9 ligands. Therefore the reporter expression was declined by TLR9 antagonist under the stimulation of a ligand, such as ODN2006 (Cat. #: tlrl-2006-1, Invivogen, San Diego, California, USA), for incubation of 20 hrs. The cell culture supernatant SEAP reporter activity was determined using QUANTI-Blue™ kit (Cat. #: rep-qb1, Invivogen, San Diego, California, USA) at a wavelength of 640 nm, a detection medium that turns purple or blue in the presence of alkaline phosphatase.
HEK293-Blue-hTLR9 cells were incubated at a density of 250,000˜450,000 cells/mL in a volume of 170 μL in a 96-well plate in Dulbecco's Modified Eagle's medium (DMEM) containing 4.5 g/L glucose, 50 U/mL penicillin, […], 2 mM L-glutamine, 10% (v/v) heat-inactivated fetal bovine serum with addition of 20 μL test compound in a serial dilution in the presence of final DMSO at 1% and 10 μL of 20 uM ODN2006 in above DMEM, perform incubation under 37° C. in a CO2 incubator for 20 hrs. Then 20 μL of the supernatant from each well was incubated with 180 μL Quanti-blue substrate solution at 37° C. for 2 h and the absorbance was read at 620-655 nm using a spectrophotometer. The signaling pathway that TLR9 activation leads to downstream NF-κB activation has been widely accepted, and therefore similar reporter assay was modified for evaluating TLR9 antagonist.

Point of comparison: C[C@@H]1CN(c2ccc(C#N)n3nccc23)C[C@H](CN2CC3(C2)OCc2cc(N4CC(C)(N)C4)ncc23)O1 [Example 25, 4-[(2S,6R)-2-[[6-(3-amino-3-methyl-azetidin-1-yl)spiro[1H-furo[3,4-c]pyridine-3,3′-azetidine]-1′-yl]methyl]-6-methyl-morpholin-4-yl]pyrazolo[1,5-a]pyridine-7-carbonitrile], IC50 70 nM. Against it:
- C[C@@H]1CN(c2ccc(C#N)n3ncc(F)c23)C[C@H](CN2CC3(C2)OCc2cc(N4CC(C)(N)C4)ncc23)O1 [Example 24, 4-[(2S,6R)-2-[[6-(3-amino-3-methyl-azetidin-1-yl)spiro[1H-furo[3,4-c]pyridine-3,3′-azetidine]-1′-yl]methyl]-6-methyl-morpholin-4-yl]-3-fluoro-pyrazolo[1,5-a]pyridine-7-carbonitrile] — within 1.5-fold, 86 nM
- C[C@@H]1CN(c2ccc(C#N)n3ncc(F)c23)C[C@H](CN2CC3(C2)OCc2cc(N4CC(C)(N)C4)cnc23)O1 [Example 33, 4-[(2S,6R)-2-[[3-(3-amino-3-methyl-azetidin-1-yl)spiro[5H-furo[3,4-b]pyridine-7,3′-azetidine]-1′-yl]methyl]-6-methyl-morpholin-4-yl]-3-fluoro-pyrazolo[1,5-a]pyridine-7-carbonitrile] — 3.2-fold higher, 227 nM
- C[C@@H]1CN(c2ccc(C#N)n3nccc23)C[C@H](CN2CC3(C2)OCc2cc(N4CC5(CNCCO5)C4)ccc23)O1 [Example 7, 4-[(2R,6S)-2-methyl-6-[[6-(5-oxa-2,8-diazaspiro[3.5]nonan-2-yl)spiro[1H-isobenzofuran-3,3′-azetidine]-1′-yl]methyl]morpholin-4-yl]pyrazolo[1,5-a]pyridine-7-carbonitrile] — within 1.5-fold, 68 nM
- C[C@@H]1CN(c2ccc(C#N)n3ncc(F)c23)C[C@H](CN2CC3(C2)OCc2cc(N4C[C@H](N)[C@@H](O)C4)ccc23)O1 [Example 10, 4-[(2S,6R)-2-[[6-[(3S,4S)-3-amino-4-hydroxy-pyrrolidin-1-yl]spiro[1H-isobenzofuran-3,3′-azetidine]-1′-yl]methyl]-6-methyl-morpholin-4-yl]-3-fluoro-pyrazolo[1,5-a]pyridine-7-carbonitrile] — within 1.5-fold, 61 nM
- [2H]c1ccc2c(N3C[C@H](CN4CC5(C4)OCc4cc(N6C[C@@H](N)[C@H](OC)C6)cnc45)O[C@H](C)C3)ccc(C#N)c2n1 [Example 31, 5-[(2S,6R)-2-[[3-[(3R,4R)-3-amino-4-methoxy-pyrrolidin-1-yl]spiro[5H-furo[3,4-b]pyridine-7,3′-azetidine]-1′-yl]methyl]-6-methyl-morpholin-4-yl]-2-deuterio-quinoline-8-carbonitrile] — within 1.5-fold, 79 nM
- C[C@@H]1CN(c2ccc(C#N)n3ncc(F)c23)C[C@H](CN2CC3(C2)OCc2cc(N4CC5(CN(C)C5)C4)cnc23)O1 [Example 22, 3-fluoro-4-[(2R,6S)-2-methyl-6-[[3-(6-methyl-2,6-diazaspiro[3.3]heptan-2-yl)spiro[5H-furo[3,4-b]pyridine-7,3′-azetidine]-1′-yl]methyl]morpholin-4-yl]pyrazolo[1,5-a]pyridine-7-carbonitrile] — within 1.5-fold, 57 nM
- C[C@@H]1CN(c2ccc(C#N)n3ncc(F)c23)C[C@H](CN2CC3(C2)OCc2cc(N4CCNCC4)ccc23)O1 [Example 6, 3-fluoro-4-[(2R,6S)-2-methyl-6-[(6-piperazin-1-ylspiro[1H-isobenzofuran-3,3′-azetidine]-1′-yl)methyl]morpholin-4-yl]pyrazolo[1,5-a]pyridine-7-carbonitrile] — within 1.5-fold, 90 nM
